Earlier results, collected in patent publication EP3815682A1, “A PERK KINASE INHIBITOR FOR TREATING DISEASES ASSOCIATED WITH ENDOPLASMIC RETICULUM STRESS” (Uniwersytet Medyczny w Lodzi, priority 2019, dated 2021).

Tests used:
[1] = target: T1, PERK kinase and eIF2α protein phosphorylation (Homo sapiens, UniProt Q9NZJ5); details: Atkins et al.
T1 sequence (Q9NZJ5 30-1116): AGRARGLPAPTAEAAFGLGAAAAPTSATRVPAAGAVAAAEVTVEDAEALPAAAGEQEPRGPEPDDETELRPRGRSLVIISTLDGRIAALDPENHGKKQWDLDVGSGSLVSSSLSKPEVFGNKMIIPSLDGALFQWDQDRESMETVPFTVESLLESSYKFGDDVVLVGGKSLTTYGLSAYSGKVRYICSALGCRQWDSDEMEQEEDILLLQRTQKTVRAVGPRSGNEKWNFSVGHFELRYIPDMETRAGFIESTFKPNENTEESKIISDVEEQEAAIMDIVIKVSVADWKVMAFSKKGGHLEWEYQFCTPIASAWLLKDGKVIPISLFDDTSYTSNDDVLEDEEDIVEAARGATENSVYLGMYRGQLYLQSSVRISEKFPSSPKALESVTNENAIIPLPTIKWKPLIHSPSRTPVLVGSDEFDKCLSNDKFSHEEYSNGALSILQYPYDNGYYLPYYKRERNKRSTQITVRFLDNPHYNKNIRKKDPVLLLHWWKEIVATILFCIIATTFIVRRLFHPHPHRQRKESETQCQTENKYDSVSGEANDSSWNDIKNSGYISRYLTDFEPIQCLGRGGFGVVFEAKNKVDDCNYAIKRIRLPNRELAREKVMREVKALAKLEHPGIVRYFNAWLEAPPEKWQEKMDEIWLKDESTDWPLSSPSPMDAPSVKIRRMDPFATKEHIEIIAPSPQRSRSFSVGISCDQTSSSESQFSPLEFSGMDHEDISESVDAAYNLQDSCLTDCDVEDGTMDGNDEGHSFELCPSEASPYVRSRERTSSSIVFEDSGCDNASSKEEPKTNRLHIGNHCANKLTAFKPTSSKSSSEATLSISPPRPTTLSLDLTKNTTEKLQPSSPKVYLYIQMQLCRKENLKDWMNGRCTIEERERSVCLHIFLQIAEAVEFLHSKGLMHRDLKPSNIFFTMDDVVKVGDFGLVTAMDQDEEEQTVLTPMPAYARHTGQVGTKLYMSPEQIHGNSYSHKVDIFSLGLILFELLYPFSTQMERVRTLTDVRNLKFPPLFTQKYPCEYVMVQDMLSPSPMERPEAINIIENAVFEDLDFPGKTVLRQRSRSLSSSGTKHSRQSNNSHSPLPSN

pancreatic cells [2] = details: reason for not entering clinical trials
pancreatic cells [3] = test system: pancreatic cells
[4] = not told
[5] = animals administered the inhibitor

Cc1cccc(CC(=O)N2CCc3c2ccc(-c2cn(C)c4ncnc(N)c24)c3F)n1 [GSK2656157]
inhibition of PERK kinase and eIF2α protein phosphorylation [1]: effective inhibition
activity on pancreatic cells (pancreatic cells [2]): non-selective activity also on pancreatic cells

Cn1cc(-c2ccc3c(c2)CCN3C(=O)Cc2cccc(C(F)(F)F)c2)c2c(N)ncnc21 [GSK2606414]
glycemia (pancreatic cells [3]; [5]): hyperglycemia
weight (pancreatic cells [3]; [5]): significant weight loss
effect on pancreatic cells (pancreatic cells [3]; mice): cytotoxic effect
level of phosphorylated forms of PERK and eIF2α (PERK and eIF2α; compared with mice not administered the inhibitor): substantially lower
protein synthesis in cells (PERK and eIF2α; mouse, in vivo): temporary restoration of protein synthesis

O=C(COc1ccc(Cl)cc1)NC1CCC(NC(=O)COc2ccc(Cl)cc2)CC1 (stereo not shown) [ISRIB]
permeability of the blood-brain barrier [4]: good permeability

O=C(/C=C/c1ccccc1)NC(NC(=S)Nc1cccc2cccnc12)C(Cl)(Cl)Cl (stereo not shown) [Salubrinal]
survival (eIF2α phosphorylation; compared with animals that did not receive the compound): died quicker
eIF2α phosphorylation (eIF2α phosphorylation; mouse, in vivo): increase
